Source: PMC8342434, “Solubility of vitamin A in supercritical CO2: experimental study and thermodynamic modeling” (Scientific Reports, 2021)
≈ marks a conversion by molar mass, not a printed value.

Assay: Equilibrium solubility of vitamin A in supercritical CO2 (static cell, UV-VIS)
Type: physicochemical
Method: Figure 1 indicates the system used for measuring the equilibrium solubility. […] Consequently, the gas was liquefied through dropping the temperature to − 20 °C so that it was prepared for pumping function by means of pressure controlling instruments (TEBCO, Iran) with an uncertainty of ± 0.1 MPa.
After CO2 pumped into the inlet solvent stream, the methanol tank (as a co-solvent in this section) and modulator valve controlled the solvent concentration. The inlet solvent concentration should be regulated. Thus, it is an adjustable factor as function of solute content based on simultaneous data from experimental setup. The pressure of the circuit was taken into the collection container through altering amount of modulator on the injection tap. This includes a certain volume of solvent (CO2 and methanol). Providing the thermal equilibrium condition with the inner part of the oven in shorter time, this equilibrium spiral pipe can be utilized for efficient mixing of CO2 and modulators. The cell was put inside carefully (FG Model, BF400E, Iran) to keep the operating temperature (with ± 0.5 K).
Roughly before the start of the extraction, 500 mg of powder Retinol were put into the static cell with the volume of 10 mL and due to the pressure drop, downward flowrate (in line with weight force of the materials) was used. Eluding physical entrainment of the unextracted Vitamin A (Rich Retinol), the tops of the pressurized equilibrium cell were connected by means of the stainless-steel disks before SC-CO2 was distributed into the cell, its pressure was enhanced up to the anticipated pressure before it is moved through the equilibrium cell at operational conditions. In the present research, 60 min was estimated to achieve the state of equilibrium (in the cell).
In fact, the final sample (in the standard state) in two phases of gas (carbon dioxide) and liquid phase (solution containing methanol and vitamin A) It was stored in accumulation glass and entered the spectrophotometer. Finally, the solvent was used to clean the circuit.
As solubility values of Vitamin A were obtained in various conditions, they were noted by absorbency mensuration’s at λmax using a model 2100 UNICO UV–VIS spectrophotometer with 1000 nm Wavelength. The equilibrium mole fraction yA and equilibrium solubility, S(g/L) in SC-CO2 over the ranges of temperature and pressure obtained from below equation[21]:1 yA=nA/nA+nC where2 nA=CAg/L×VAL/MAg/mol 3 nC=VlL×ρg/L/MCg/mol where nA and nC are sample moles of vitamin A and solvent, CA is the concentration of vitamin A g/L in the accumulation glass calculated by the curve of calibration. The volumes of the accumulation vial are denoted by VAL and VlL is the sampling circuit. Furthermore, MA and MC are the molecular weights of Vitamin A and CO2, respectively. By combining the aforementioned, the subsequent relation is achieved (Eq. (4)).4 yA=CAg/L×VSL×MCg/mol/CAg/L×VAL×MCg/mol+VlL×ρg/L×MAg/mol
In order to obtain the g/L of Vitamin A in SC-CO2 […] was used[21].5 Sg/L=CAg/L×VAL/VlL

CC1=C(/C=C/C(C)=C/C=C/C(C)=C/CO)C(C)(C)CCC1 [vitamin A, Retinol]
Mole fraction (SC-CO2, 303 K, 90 bar): 2.18e-05
Mole fraction (SC-CO2, 303 K, 115 bar): 2.92e-05
Mole fraction (SC-CO2, 303 K, 130 bar): 3.58e-05
Mole fraction (SC-CO2, 303 K, 140 bar): 4.12e-05
Mole fraction (SC-CO2, 303 K, 155 bar): 5.29e-05
Mole fraction (SC-CO2, 303 K, 175 bar): 6.01e-05
Mole fraction (SC-CO2, 303 K, 185 bar): 6.25e-05
Mole fraction (SC-CO2, 303 K, 195 bar): 7.21e-05
Mole fraction (SC-CO2, 303 K, 220 bar): 7.96e-05
Mole fraction (SC-CO2, 303 K, 230 bar): 8.19e-05
Mole fraction (SC-CO2, 303 K, 245 bar): 8.32e-05
Mole fraction (SC-CO2, 313 K, 100 bar): 1.68e-05
Mole fraction (SC-CO2, 313 K, 120 bar): 3.62e-05
Mole fraction (SC-CO2, 313 K, 130 bar): 5.41e-05
Mole fraction (SC-CO2, 313 K, 140 bar): 5.25e-05
Mole fraction (SC-CO2, 313 K, 155 bar): 6.63e-05
Mole fraction (SC-CO2, 313 K, 170 bar): 8.13e-05
Mole fraction (SC-CO2, 313 K, 200 bar): 0.000125
Mole fraction (SC-CO2, 313 K, 235 bar): 0.000138
Mole fraction (SC-CO2, 313 K, 245 bar): 0.000149
Mole fraction (SC-CO2, 323 K, 110 bar): 2.68e-05
Mole fraction (SC-CO2, 323 K, 135 bar): 5.24e-05
Mole fraction (SC-CO2, 323 K, 180 bar): 0.00014
Mole fraction (SC-CO2, 323 K, 195 bar): 0.000148
Mole fraction (SC-CO2, 323 K, 205 bar): 0.00016
Mole fraction (SC-CO2, 323 K, 235 bar): 0.000196
cross-over pressure (SC-CO2, isotherms at 303, 313 and 323 K (Fig. 3)): 110 bar
solubility of fat-soluble vitamin A in SC-CO2 (SC-CO2, under certain conditions): ~0.7 g/kg
solubility thermodynamic at 60 min (supercritical CO2 in a 10 mL static equilibrium cell, organic solvent or mixture, thermodynamic from solid, SC-CO2, 303–323 K, 90–235 bar, minimum at 303 K, 90 bar, maximum at 323 K, 235 bar, read-out: equilibrium solubility S of Vitamin A in SC-CO2, span over all conditions): 96 to 1040 µg/mL (≈ 335 to 3620 µM)
